Measured values published in paper PMC9780326, “Venom composition and pain-causing toxins of the Australian great carpenter bee Xylocopa aruana” (Scientific Reports, 2022).
Where two headings read alike, the source gives them in different places. No end group written: not given here.

Experiments:
[1] = test system: mice; test: Paw swelling (paw thickness) after intraplantar injection; assay type: in vivo, male C57BL/6J mice; conditions: 200 pmol + venom PLA2 (20 pmol)
[2] = cited from earlier work
From the text: By far the most studied bee venom is that of the Western honeybee Apis mellifera. Its venom is dominated by a 26-residue cysteine-free amphipathic peptide known as melittin which makes up 40–60% of the dry weight of the venom. Another major components is venom phospholipase-A2 (PLA2; 10–12% dry weight), with smaller amounts of histamine (5–10%), venom hyaluronidase (1–2%) and the small disulfide-rich peptides apamin (3%) and mast cell-degranulating (MCD)-peptide (2%)[4]. Other reported components are present in trace amounts.

[3] = test system: F11 cells; assay type: cell-based, mouse neuroblastoma × rat DRG cell line; conditions: FLIPR, Calcium 4; peptide in PSS + 0.1% BSA, 300 s; mean ± SEM, n = 6; read-out: EC50, increase of [Ca2+]i in F11 cells
Procedure: F11 (mouse neuroblastoma × DRG neuron hybrid; European Collection of Authenticated Cell Cultures) were cultured as previously described. Cells were maintained on Ham’s F12 media supplemented with 10% FBS, 100 µM hypoxanthine, 0.4 µM aminopterin, and 16 µM thymidine (Hybri-Max, Sigma Aldrich). 384-well imaging plates (Corning, Lowell, MA, USA) were seeded 24 h prior to calcium imaging, resulting in ~ 90% confluence at the time of imaging. Cells were loaded for 30 min at 37 °C with Calcium 4 assay component A in physiological salt solution (PSS; 140 mM NaCl, 11.5 mM D-glucose, 5.9 mM KCl, 1.4 mM MgCl2, 1.2 mM NaH2PO4, 5 mM NaHCO3, 1.8 mM CaCl2, 10 mM HEPES) according to the manufacturer’s instructions (Molecular Devices, Sunnyvale, CA). Ca^2+ responses were measured using a FLIPR^TETRA fluorescent plate reader equipped with a CCD camera (Ex: 470 to 490 nm, Em: […]) (Molecular Devices, Sunnyvale, CA). Signals were read every second for 10 s before, and 300 s after, the addition of peptide (in PSS supplemented with 0.1% BSA).
Data were plotted and analysed using Prism v9.0.0 (GraphPad Software, San Diego, CA, USA). For calcium imaging experiments of mouse DRG neurons and F11 cells, treatment groups were compared using unpaired t-tests. […]

[4] = test system: mice; assay type: in vivo, male C57BL/6J mice; conditions: for pain behaviours on co-injection with venom PLA2: 200 pmol + venom PLA2 (20 pmol); for spontaneous pain behaviours: 200 pmol alone, 20 µL
[5] = test system: HEK293AD cells; test: Whole-cell patch-clamp, leak current in HEK293AD cells (QPatch 16X); assay type: cell-based
Procedure: The mature peptide of XYTX1-Xa1a shares a similar primary structure with Xac-1, Xac-2 and melectin. […] We hypothesised that XYTX1-Xa1a would share the same activity. We tested, by whole-cell patch-clamp electrophysiology, the capacity of XYTX1-Xa1a to directly induce leak currents in cell membranes. For these experiments we used HEK293AD cells, which lack appreciable expression of the ion channels found in neurons. At 4 min after application of XYTX1-Xa1a (30 μM) we recorded leak currents at test potentials ranging from − 60 to + 60 mV in 10-mV increments from a holding potential of 0 mV every 6 s. At + 60 mV, we recorded currents of 3.3 ± 0.6 nA (mean ± SEM, n = 6 cells) compared with 0.08 ± 0.02 nA (n = 5 cells) for time-matched negative controls (application of extracellular solution (ECS)) (Fig. 3a–c).
(a) Representative current traces in HEK293AD cells at voltages of − 60 to + 60 mV (10 mV steps) acquired before application and 2 min after application of (a) extracellular solution (ECS) or (b) 30 μM XYTX1-Xa1a. […] Data are expressed as mean ± SEM (n = 5–6 cells) and fitted to a simple linear regression. […]
HEK293AD cells (American Type Culture Collection) were cultured as previously described. […] From a holding potential of 0 mV each recorded cell was subjected to a series of 50-ms voltage pulses that ranged from − 60 to + 60 mV in 10-mV increments. […]

[6] = test system: mouse dorsal root ganglion (DRG) cells; test: Calcium imaging assay of mouse DRG neurons; assay type: cell-based
Procedure: Figure 5 Pain-causing effects of X. aruana venom components. (a,b) Application of XYTX1-Xa1a (10 μM) to DRG cells produced an immediate and sustained, non-cell-specific increase in [Ca^2+]i. (c) Potency of XYTX1-Xa1a and melittin in F11 cells, as monitored by changes in [Ca^2+]i. (d–f) The increase in [Ca^2+]i caused by XYTX1-Xa1a was potentiated by the presence of venom PLA2 (1 µM), but not XYTX2-Xa2a (1 μM). **P < 0.01 (unpaired t-test). […] Data are expressed as mean ± SEM (n = 3–6). […] Data are expressed as mean ± SEM (n = 3–6). *P < 0.05; **P < 0.01; ****P < 0.0001 (one way-ANOVA with Tukey’s multiple comparisons).
DRG cells were isolated from 4- to 6-week-old-male C57BL/6 mice that were purchased from the Animal Resources Centre (WA, Australia). DRGs were dissociated, then cells were plated in Dulbecco’s Modified Eagle’s Medium (DMEM; Gibco, MD, USA) containing 10% fetal bovine serum (FBS) (Assaymatrix, VIC, Australia) and penicillin/streptomycin (Gibco) on a 96-well poly-D-lysine-coated culture plate (Corning, ME, USA) and maintained overnight. Cells were loaded with Fluo-4 AM calcium indicator, according to the manufacturer’s instructions (ThermoFisher Scientific, MA, USA). After loading (1 h), the dye-containing solution was replaced with assay solution (1× Hanks’ balanced salt solution, 20 mM HEPES). Images were acquired at 10× objective at 1 frame/s (excitation 485 nm, emission 521 nm). Fluorescence corresponding to [Ca^2+]i of ~ 250 cells per experiment was monitored in parallel using an Nikon Ti-E Deconvolution inverted microscope, equipped with a Lumencor Spectra LED Lightsource. Baseline fluorescence was monitored for 30 s. At 30 s, assay solution was replaced with either assay solution, or assay solution containing venom PLA2 (1 µM) or XYTX2-Xa2a (1 µM), then at 1 min with XYTX1-Xa1a (in assay solution ± venom PLA2 (1 µM) or XYTX2-Xa2a (1 µM)) and monitored for 2 min before being replaced with assay solution and then KCl (30 mM; positive control). Experiments involving the use of mouse tissue were approved by the University of Queensland Animal Ethics Committee (UQ AEC; approval number TRI/IMB/093/17).
Data were plotted and analysed using Prism v9.0.0 (GraphPad Software, San Diego, CA, USA). For calcium imaging experiments of mouse DRG neurons and F11 cells, treatment groups were compared using unpaired t-tests. For analysis of spontaneous pain, sum of pain behaviour counts at 30 min of treatment groups were compared using one-way ANOVA with Tukey’s multiple comparisons test. Statistical significance was defined as P < 0.05. All data are presented as mean ± SEM.

[7] = test system: Shaker-like voltage-gated potassium (KV) channel KV1.2; conditions: cited from earlier work
[8] = test system: mice; assay type: in vivo, male C57BL/6J mice
[9] = test system: Shaker-like voltage-gated potassium (KV) channel KV1.1; conditions: cited from earlier work
[10] = test system: mammalian small conductance calcium-activated potassium (KCa, SK) channel KCa2.2; conditions: cited from earlier work
From the text: XYTX2-Xa2a is similar in sequence to Bombus and Apis MCD-peptides and apamin. Apamin is a blocker of the mammalian small conductance calcium-activated potassium (KCa, SK) channel KCa2.2[20], while Apis MCD peptide is a blocker of Shaker-like voltage-gated potassium (KV) channels KV1.1 and KV1.2[21]. We hypothesised that XYTX2-Xa2a might share similar activity. Thus, we tested XYTX2-Xa2a for activity on human KV1.1, KV1.2, KV1.3, KCa2.1 and KCa2.2.

Compound: CC[C@H](C)[C@H](NC(=O)CN)C(=O)NCC(=O)N[C@@H](C)C(=O)N[C@H](C(=O)N[C@@H](CC(C)C)C(=O)N[C@@H](CCCCN)C(=O)N[C@H](C(=O)N[C@@H](CC(C)C)C(=O)N[C@H](C(=O)N[C@H](C(=O)NCC(=O)N[C@@H](CC(C)C)C(=O)N1CCC[C@H]1C(=O)N[C@@H](C)C(=O)N[C@@H](CC(C)C)C(=O)N[C@H](C(=O)N[C@@H](CO)C(=O)N[C@@H](Cc1c[nH]c2ccccc12)C(=O)N[C@H](C(=O)N[C@@H](CCCCN)C(=O)N[C@@H](CCCNC(=N)N)C(=O)N[C@@H](CCCCN)C(=O)N[C@@H](CCCNC(=N)N)C(=O)N[C@@H](CCC(N)=O)C(=O)N[C@@H](CCC(N)=O)C(N)=O)[C@@H](C)CC)[C@@H](C)CC)[C@@H](C)O)[C@@H](C)O)C(C)C)C(C)C [melittin]
- paw swelling [1]: caused paw swelling
- pore formation [2]: can form pores in cell membranes
- EC50 [3]: 1.2 ± 0.1 µM
- pain behaviours on co-injection with venom PLA2 [4]: potentiated by co-injection with 20 pmol venom PLA2
- spontaneous pain behaviours ([4]; shallow intraplantar): caused spontaneous pain behaviours
- leak current in HEK293AD cells ([5]; 10 μM melittin, 2 min after addition, n = 5 cells, Fig. S4): causes a leak current in HEK293AD cells

Compound: GFLSILKKLPLILKHLP-NH2 [XYTX1-Xa1a]
- neurons with increase of [Ca2+]i ([6]; 10 μM (Fig. 5 legend), alone, mean ± SEM): 49.4 ± 3.2%
- neurons activated, in the presence of XYTX2-Xa2a ([6]; with XYTX2-Xa2a (1 μM), mean ± SEM): 45.8 ± 5.5%
- cell lysis in the presence of venom PLA2 ([6]; with venom PLA2 (1 µM), leakage of dye into extracellular media): increased cell lysis
- neurons activated, in the presence of venom PLA2 ([6]; with venom PLA2 (1 µM), mean ± SEM): 93.2 ± 6.5%
- paw swelling [1]: caused paw swelling
- EC50 [3]: 5.2 ± 0.7 µM
- pain behaviours on co-injection with venom PLA2 [4]: increased (frequency and duration)
- spontaneous pain behaviours ([4]; shallow intraplantar): caused spontaneous pain behaviours
- leak current at + 60 mV ([5]; 30 μM, 4 min after application, holding potential 0 mV, mean ± SEM, n = 6 cells, negative control ECS 0.08 ± 0.02 nA (n = 5 cells)): 3.3 ± 0.6 nA

Compound: MCD-peptide: mast cell-degranulating (MCD)-peptide of A. mellifera (Uniprot: P01499), purchased from Alomone labs (IKCNCKRHVIKPHICRKICGKN; UniProt P01499 28-49, looked up)
- block of KV1.2 [7]: blocker
- pain behaviour counts versus control ([4]; mouse, in vivo): not different to control
- paw-withdrawal threshold to a mechanical stimulus versus negative control (saline) ([8]; mouse, in vivo): no difference to negative control (saline) injection
- block of KV1.1 [9]: blocker

Compound: apamin: A. mellifera apamin (Uniprot: P01500), purchased from Alomone labs (CNCKAPETALCARRCQQH; UniProt P01500 28-45, looked up)
- block of mammalian KCa2.2 [10]: blocker
- pain behaviour counts versus control ([4]; 2 pmol alone, shallow intraplantar): not different to control
- paw-withdrawal threshold to a mechanical stimulus versus negative control (saline) ([8]; 2 pmol/paw intraplantar, 1 and 4 h): no difference to negative control (saline) injection
